Like-named read-outs stand apart in the source and are kept apart here.
What was measured:
[1] = tested on: IL-13 induced pSTAT6 in lung tissue; assay: Murine model of IL-13 induced pSTAT6 induction in lung tissue; type: in vivo, mouse; details: Balb/c mice, 1 mg/mL, 50 μL oral aspiration; IL-13 challenge 4 hours after compound; lung homogenate
Experimental: Assay 3: Murine (Mouse) Model of IL-13 Induced pSTAT6 Induction in Lung Tissue
IL-13 binds to cell surface receptors activating members of the Janus family of kinases (JAK) which then phosphorylate STAT6 and subsequently activates further transcription pathways. In the described model, a dose of IL-13 was delivered locally into the lungs of mice to induce the phosphorylation of STAT6 (pSTAT6) which is then measured as the endpoint.
Activity in the model is evidenced by a decrease in the level of pSTAT6 present in the lungs of treated animals at 5 hours compared to the vehicle treated, IL-13 challenged control animals. The difference between the control animals which were vehicle-treated, IL-13 challenged and the control animals which were vehicle-treated, vehicle challenged dictated the 0% and 100% inhibitory effect, respectively, in any given experiment.

[2] = Pharmacokinetics in plasma and lung in mouse; type: in vivo; details: BALB/c mice, single oral aspiration, 0.2 mg/mL, 50 μL; for Kp / AUC(0-t): mouse, other: oral aspiration into the trachea, 10 µg/mouse; for Kp: lung / plasma, read-out: Lung Tissue:Plasma AUC ratio; for AUC(0-t): plasma, read-out: Plasma AUC(0-24)
Experimental: Assay 6: Pharmacokinetics in Plasma and Lung in Mouse
Plasma and lung concentrations of test compounds and ratios thereof were determined in the following manner. BALB/c mice from Charles River Laboratories were used in the assay. Test compounds were individually formulated in 20% propylene glycol in pH 4 citrate buffer at a concentration of 0.2 mg/mL and 50 μL of the dosing solution was introduced into the trachea of a mouse by oral aspiration. At various time points (typically 0.167, 2, 6, 24 hr) post dosing, blood samples were removed via cardiac puncture and intact lungs were excised from the mice.

[3] = tested on: IFNγ stimulated STAT1 phosphorylation in CD14+ monocytes; assay: Cellular JAK potency assay: inhibition of IFNγ-induced pSTAT1; type: cell-based; details: Homo sapiens, Monocyte, 0.5 h, read-out: pIC50, inhibition of IFNγ-induced pSTAT1 (converted)
Text: Data are expressed as pIC50 (negative decadic logarithm IC50) values.

[4] = tested on: GM-CSF stimulated STAT5 phosphorylation in CD14+ monocytes; assay: Cellular JAK potency assay: inhibition of GM-CSF-induced pSTAT5; type: cell-based; details: Homo sapiens, Monocyte, 0.25 h, read-out: pIC50, inhibition of GM-CSF-induced pSTAT5 (converted)
Experimental: Assay 15: Cellular JAK Potency Assay: Inhibition of GM-CSF-Induced pSTAT5
The potency of test compounds for inhibition of granulocyte-macrophage colony-stimulating factor (GM-CSF) stimulated STAT5 phosphorylation was measured in CD14-positive (CD14+) monocytes derived from human whole blood (Stanford Blood Center) using flow cytometry. Because GM-CSF signals through JAK, this assay provides a measure of JAK cellular potency.
Monocytes were identified using a fluorescein isothiocyanate (FITC) conjugated anti-CD14 antibody (Clone RM052, Beckman Coulter), and an Alexa Fluor 647 conjugated anti-pSTAT5 antibody (pY694, BD Biosciences) was used to detect STAT5 phosphorylation.
Human peripheral blood mononuclear cells (PBMC) were isolated from human whole blood of healthy donors using a ficoll gradient. […] Cells were washed twice with FACS buffer, and then re-suspended in 1:10 […] Alexa Fluor 647:FACS buffer (100 μL) for 30 min at RT in the dark, washed twice in FACS buffer, and analyzed using a MACSQuant flow cytometer (Miltenyi).
To determine the inhibitory potency of the test compound, the median fluorescent intensity (MFI) of pSTAT5 was measured in CD14+ monocytes. IC50 values were determined from analysis of the inhibition curves of MFI vs compound concentration. Data are expressed as pIC50 (negative decadic logarithm IC50) values.

Compound	pSTAT6 inhibition at 5 hours [1]	Lung Tissue AUC(0-24) [2]	Kp [2]	AUC(0-t) [2]	IC50 ([3]; CD14+ monocytes, IFNγ 0.6 ng/mL, 30 min, flow cytometry)	IC50 ([4]; CD14+ monocytes, GM-CSF 0.3 ng/mL, 15 min, flow cytometry)	IC50 [3]	IC50 [4]
CCCN1Cc2[nH]c(-c3n[nH]c4cc(-c5ccc(O)cc5CC)ccc34)nc2C[C@H]1C(=O)N1C[C@@H]2C[C@H]1CN2C [Compound 2, ((S)-2-(6-(2-ethyl-4-hydroxyphenyl)-1H-indazol-3-yl)-5-propyl-4,5,6,7-tetrahydro-3H-imidazo[4,5-c]pyridin-6-yl)((1S,4S)-5-methyl-2,5-diazabicyclo[2.2.1]heptan-2-yl)methanone]	72%							
CCCN1Cc2[nH]c(-c3n[nH]c4cc(-c5ccc(O)cc5CC)ccc34)nc2C[C@H]1C(=O)N1CCN(CCO)CC1 [Compound 1, (S)-(2-(6-(2-ethyl-4-hydroxyphenyl)-1H-indazol-3-yl)-5-propyl-4,5,6,7-tetrahydro-3H-imidazo[4,5-c]pyridin-6-yl)(4-(2-hydroxyethyl)piperazin-1-yl)methanone]	67%	64.6 µg·h/g	111	581 ng·h/mL	31.6 nM	200 nM		
CCc1cc(O)ccc1-c1ccc2c(-c3nc4c([nH]3)CN(C(C)C)[C@H](C(=O)N3CC[C@H](N(C)C)C3)C4)n[nH]c2c1 [Compound 6, ((S)-3-(dimethylamino)pyrrolidin-1-yl)((S)-2-(6-(2-ethyl-4-hydroxyphenyl)-1H-indazol-3-yl)-5-isopropyl-4,5,6,7-tetrahydro-3H-imidazo[4,5-c]pyridin-6-yl)methanone]	37%							
CCc1cc(O)ccc1-c1ccc2c(-c3nc4c([nH]3)CN(C)[C@H](C(=O)N3CCN(CCO)C[C@H]3C)C4)n[nH]c2c1 [Compound 5, ((S)-2-(6-(2-ethyl-4-hydroxyphenyl)-1H-indazol-3-yl)-5-methyl-4,5,6,7-tetrahydro-3H-imidazo[4,5-c]pyridin-6-yl)((R)-4-(2-hydroxyethyl)-2-methylpiperazin-1-yl)methanone]	73%	29.9 µg·h/g	49.9	599 ng·h/mL				
CCc1cc(O)ccc1-c1ccc2c(-c3nc4c([nH]3)CN(C(C)C)[C@H](C(=O)N3CCCN(C)CC3)C4)n[nH]c2c1 [Compound 4, (S)-(2-(6-(2-ethyl-4-hydroxyphenyl)-1H-indazol-3-yl)-5-isopropyl-4,5,6,7-tetrahydro-3H-imidazo[4,5-c]pyridin-6-yl)(4-methyl-1,4-diazepan-1-yl)methanone]	67%						50.1 nM	200 nM

From patent US10836763B2, “5 to 7 membered heterocyclic amides as JAK inhibitors” (priority 2018, dated 2020)
